Test results published in US9340590B2 (priority 2011, dated 2016).
Read-outs that look alike come from different tables or passages of the source. Positions of bridges follow the written chain, without caps; N, C: chain ends. Residues, ends and D or L forms follow the SMILES beside them.

Experiments:
[1] = molecular target: hNav1.3 (Homo sapiens, UniProt Q9NY46); assay: cell-based; conditions: IonWorks Quattro, read-out: IWQ Use Nav1.3
[2] = molecular target: hNav1.5 (Homo sapiens, UniProt Q14524); assay: cell-based
Sequence of hNav1.5 (Q14524 whole entry, looked up): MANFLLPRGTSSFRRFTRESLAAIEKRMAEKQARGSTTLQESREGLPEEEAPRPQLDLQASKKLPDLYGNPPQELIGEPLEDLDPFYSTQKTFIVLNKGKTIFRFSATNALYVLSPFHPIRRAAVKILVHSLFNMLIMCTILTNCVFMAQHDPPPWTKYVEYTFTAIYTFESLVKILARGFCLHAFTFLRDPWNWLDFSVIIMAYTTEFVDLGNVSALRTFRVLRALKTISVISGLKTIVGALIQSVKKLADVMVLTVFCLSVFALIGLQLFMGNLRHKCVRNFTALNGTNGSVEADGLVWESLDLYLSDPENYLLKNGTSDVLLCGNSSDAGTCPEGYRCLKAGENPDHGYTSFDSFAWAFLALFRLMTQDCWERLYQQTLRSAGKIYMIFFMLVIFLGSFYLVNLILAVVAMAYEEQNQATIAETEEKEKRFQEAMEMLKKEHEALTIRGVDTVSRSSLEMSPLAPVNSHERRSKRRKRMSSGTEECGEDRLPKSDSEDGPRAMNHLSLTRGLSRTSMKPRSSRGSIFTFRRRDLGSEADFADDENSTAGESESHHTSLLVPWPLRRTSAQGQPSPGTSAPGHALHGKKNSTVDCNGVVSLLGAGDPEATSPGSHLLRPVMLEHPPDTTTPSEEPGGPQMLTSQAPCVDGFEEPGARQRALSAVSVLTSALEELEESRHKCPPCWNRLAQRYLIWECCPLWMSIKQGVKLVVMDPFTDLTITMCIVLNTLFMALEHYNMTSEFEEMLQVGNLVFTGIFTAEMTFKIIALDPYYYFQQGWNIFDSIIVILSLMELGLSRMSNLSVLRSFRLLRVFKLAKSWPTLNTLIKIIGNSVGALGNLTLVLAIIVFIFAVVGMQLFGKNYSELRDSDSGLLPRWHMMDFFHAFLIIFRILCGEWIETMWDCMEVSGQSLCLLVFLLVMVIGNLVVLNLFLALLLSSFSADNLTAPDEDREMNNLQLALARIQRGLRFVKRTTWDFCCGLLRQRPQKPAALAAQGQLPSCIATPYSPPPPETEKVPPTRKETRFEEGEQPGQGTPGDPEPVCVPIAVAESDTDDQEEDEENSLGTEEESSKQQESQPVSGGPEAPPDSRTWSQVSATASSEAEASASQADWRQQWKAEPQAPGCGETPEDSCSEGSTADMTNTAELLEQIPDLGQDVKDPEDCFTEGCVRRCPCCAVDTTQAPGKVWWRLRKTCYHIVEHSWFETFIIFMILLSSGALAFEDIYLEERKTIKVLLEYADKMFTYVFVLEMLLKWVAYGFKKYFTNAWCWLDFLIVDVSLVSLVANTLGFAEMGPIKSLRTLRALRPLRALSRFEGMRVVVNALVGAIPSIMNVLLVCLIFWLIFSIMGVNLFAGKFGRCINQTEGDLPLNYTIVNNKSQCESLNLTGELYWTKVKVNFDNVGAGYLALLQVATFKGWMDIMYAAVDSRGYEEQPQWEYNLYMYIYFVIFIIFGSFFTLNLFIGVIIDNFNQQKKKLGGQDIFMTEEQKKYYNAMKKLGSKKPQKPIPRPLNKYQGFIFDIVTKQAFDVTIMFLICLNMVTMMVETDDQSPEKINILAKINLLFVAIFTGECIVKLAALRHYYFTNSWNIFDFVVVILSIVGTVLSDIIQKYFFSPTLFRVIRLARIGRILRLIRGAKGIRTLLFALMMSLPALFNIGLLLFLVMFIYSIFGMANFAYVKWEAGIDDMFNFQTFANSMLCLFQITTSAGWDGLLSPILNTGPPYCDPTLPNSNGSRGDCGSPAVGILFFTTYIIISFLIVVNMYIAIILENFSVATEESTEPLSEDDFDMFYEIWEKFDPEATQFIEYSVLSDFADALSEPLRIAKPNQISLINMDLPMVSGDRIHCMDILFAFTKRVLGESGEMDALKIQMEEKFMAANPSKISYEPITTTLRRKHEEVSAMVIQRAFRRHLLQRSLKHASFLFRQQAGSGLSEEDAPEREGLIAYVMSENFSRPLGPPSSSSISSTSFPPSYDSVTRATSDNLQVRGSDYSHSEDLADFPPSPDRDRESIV

[3] = IonWorks Quattro, Use, read-out: IWQ Use Nav1.5
[4] = clamped to −110 mV, depolarized to −10 mV, 5 min after compound, n=2
[5] = IonWorks Quattro, clamped to −110 mV, depolarized to −10 mV, 5 min after compound, n=2, read-out: IWQ Use Nav1.5

Sequence of hNav1.3 (Q9NY46 whole entry, looked up): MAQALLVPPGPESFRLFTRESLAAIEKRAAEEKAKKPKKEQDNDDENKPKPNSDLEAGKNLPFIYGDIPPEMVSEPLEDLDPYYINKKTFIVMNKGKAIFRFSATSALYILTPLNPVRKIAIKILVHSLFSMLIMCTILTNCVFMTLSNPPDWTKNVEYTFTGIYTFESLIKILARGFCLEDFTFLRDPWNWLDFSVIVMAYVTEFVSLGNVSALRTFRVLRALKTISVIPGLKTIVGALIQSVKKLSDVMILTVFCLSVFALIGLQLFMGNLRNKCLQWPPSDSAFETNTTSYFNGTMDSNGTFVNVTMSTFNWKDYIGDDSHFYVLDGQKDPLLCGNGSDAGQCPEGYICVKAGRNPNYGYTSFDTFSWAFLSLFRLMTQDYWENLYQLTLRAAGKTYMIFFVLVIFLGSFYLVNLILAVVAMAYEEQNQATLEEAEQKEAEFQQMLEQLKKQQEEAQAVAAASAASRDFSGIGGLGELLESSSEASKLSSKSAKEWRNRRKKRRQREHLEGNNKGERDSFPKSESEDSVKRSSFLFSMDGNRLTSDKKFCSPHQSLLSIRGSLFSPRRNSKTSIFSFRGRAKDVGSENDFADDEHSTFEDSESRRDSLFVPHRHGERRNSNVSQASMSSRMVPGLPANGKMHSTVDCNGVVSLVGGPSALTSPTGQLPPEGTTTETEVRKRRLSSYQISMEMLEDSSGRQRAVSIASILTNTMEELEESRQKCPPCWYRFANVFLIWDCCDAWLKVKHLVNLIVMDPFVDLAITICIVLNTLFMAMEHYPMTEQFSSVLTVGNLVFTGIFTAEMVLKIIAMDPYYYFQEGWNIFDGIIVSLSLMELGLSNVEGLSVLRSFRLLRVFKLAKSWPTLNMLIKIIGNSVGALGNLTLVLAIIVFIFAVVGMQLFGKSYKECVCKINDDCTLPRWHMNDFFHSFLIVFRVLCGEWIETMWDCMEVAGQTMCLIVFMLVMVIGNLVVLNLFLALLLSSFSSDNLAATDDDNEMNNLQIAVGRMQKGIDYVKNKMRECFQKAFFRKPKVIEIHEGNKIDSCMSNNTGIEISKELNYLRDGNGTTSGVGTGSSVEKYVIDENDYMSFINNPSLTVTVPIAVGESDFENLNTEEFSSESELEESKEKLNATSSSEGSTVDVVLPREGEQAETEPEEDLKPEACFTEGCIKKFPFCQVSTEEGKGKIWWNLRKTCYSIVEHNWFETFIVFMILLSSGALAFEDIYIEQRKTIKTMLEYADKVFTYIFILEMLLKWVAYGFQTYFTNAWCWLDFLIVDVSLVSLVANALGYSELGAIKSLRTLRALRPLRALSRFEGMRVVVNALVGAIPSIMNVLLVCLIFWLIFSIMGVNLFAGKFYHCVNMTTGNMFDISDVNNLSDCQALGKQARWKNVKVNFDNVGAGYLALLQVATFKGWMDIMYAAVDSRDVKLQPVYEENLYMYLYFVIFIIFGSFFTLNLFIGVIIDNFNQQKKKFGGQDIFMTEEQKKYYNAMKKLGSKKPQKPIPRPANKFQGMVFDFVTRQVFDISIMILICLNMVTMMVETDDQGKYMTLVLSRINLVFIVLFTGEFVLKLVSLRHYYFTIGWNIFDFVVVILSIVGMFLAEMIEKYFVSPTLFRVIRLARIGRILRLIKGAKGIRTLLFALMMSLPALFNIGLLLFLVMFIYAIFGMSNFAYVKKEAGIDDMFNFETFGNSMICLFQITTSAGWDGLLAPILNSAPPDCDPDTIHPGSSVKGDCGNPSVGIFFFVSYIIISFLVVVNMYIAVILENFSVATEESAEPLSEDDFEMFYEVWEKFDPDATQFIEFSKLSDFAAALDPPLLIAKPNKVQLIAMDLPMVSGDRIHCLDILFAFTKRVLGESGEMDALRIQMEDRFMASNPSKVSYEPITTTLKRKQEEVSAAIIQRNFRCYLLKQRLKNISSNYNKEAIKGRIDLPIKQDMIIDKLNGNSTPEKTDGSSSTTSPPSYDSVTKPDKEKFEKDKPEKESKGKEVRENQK

## CSCC[C@@H]1NC(=O)[C@H](Cc2ccccc2)NC(=O)CNC(=O)[C@H](CC(C)C)NC(=O)[C@@H](NC(=O)[C@@H](N)CC(=O)O)CSSC[C@@H]2NC(=O)[C@@H]3CSSC[C@@H](C(=O)N[C@@H](CCCCN)C(=O)N[C@@H](Cc4ccc(O)cc4)C(=O)N[C@H](C(=O)N[C@@H](Cc4ccccc4)C(N)=O)C(C)C)NC(=O)[C@H](Cc4c[nH]c5ccccc45)NC(=O)[C@H](CCCCN)NC(=O)[C@H](Cc4cnc[nH]4)NC(=O)[C@H]([C@@H](C)O)NC(=O)[C@H](CCCNC(=N)N)NC(=O)[C@H](CO)NC(=O)[C@H](CSSC[C@H](NC(=O)[C@H](CCCCN)NC(=O)[C@H](CCCNC(=N)N)NC1=O)C(=O)N[C@@H](C)C(=O)N1CCC[C@H]1C(=O)N[C@@H](CC(=O)O)C(=O)N[C@@H](CC(N)=O)C(=O)N[C@@H](CC(=O)O)C(=O)N[C@@H](CCCCN)C(=O)N3)NC(=O)[C@H](C(C)C)NC(=O)[C@H](CC(C)C)NC(=O)[C@H](CC(N)=O)NC(=O)[C@@H]1CCCN1C(=O)[C@H](CCCNC(=N)N)NC2=O [compound 45] (H-DCLGFMRKCAPDNDKCCRPNLVCSRTHKWCKYVF-NH2; disulfide 2-17, 9-23, 16-30)
[1]; Use
  IC50: 0.19 µM
[2]; [3]
  IC50: 16.5 µM

## CC[C@H](C)[C@@H]1NC(=O)[C@@H]2CSSC[C@@H]3NC(=O)[C@H](C(C)C)NC(=O)[C@H](CC(C)C)NC(=O)[C@H](CC(N)=O)NC(=O)[C@@H]4CCCN4C(=O)[C@H](CCCNC(=N)N)NC(=O)[C@H](CSSC[C@H](NC(=O)[C@@H](N)CC(=O)O)C(=O)N[C@@H](CC(C)C)C(=O)NCC(=O)N[C@@H](Cc4ccccc4)C(=O)N[C@@H](CCC(=O)O)C(=O)N[C@@H](CCCNC(=N)N)C(=O)N[C@@H](CCCCN)C(=O)N2)NC(=O)[C@H](CSSC[C@@H](C(=O)N[C@@H](CCCCN)C(=O)N[C@@H](Cc2ccc(O)cc2)C(=O)N[C@H](C(=O)N[C@@H](Cc2ccccc2)C(N)=O)C(C)C)NC(=O)[C@H](Cc2c[nH]c4ccccc24)NC(=O)[C@H](CCCCN)NC(=O)[C@H](Cc2cnc[nH]2)NC(=O)[C@H]([C@@H](C)O)NC(=O)[C@H](CCCNC(=N)N)NC(=O)[C@H](CO)NC3=O)NC(=O)[C@H](CCCCN)NC(=O)[C@H](CC(=O)O)NC(=O)[C@H](CC(N)=O)NC(=O)[C@H](CC(=O)O)NC(=O)[C@@H]2CCCN2C1=O [SEQ ID NO: 144] (H-DCLGFERKCIPDNDKCCRPNLVCSRTHKWCKYVF-NH2; disulfide 2-17, 9-23, 16-30)
[1]; [4]
  IC50: 20.4 µM
[2]; [5]
  IC50: 9.39 µM

## CC[C@H](C)[C@@H]1NC(=O)[C@@H]2CSSC[C@@H]3NC(=O)[C@H](CCC(=O)O)NC(=O)[C@H](CC(C)C)NC(=O)[C@H](CC(N)=O)NC(=O)[C@@H]4CCCN4C(=O)[C@H](CCCNC(=N)N)NC(=O)[C@H](CSSC[C@H](NC(=O)[C@@H](N)CC(=O)O)C(=O)N[C@@H](CC(C)C)C(=O)NCC(=O)N[C@@H](Cc4ccccc4)C(=O)N[C@@H](CCSC)C(=O)N[C@@H](CCCNC(=N)N)C(=O)N[C@@H](CCCCN)C(=O)N2)NC(=O)[C@H](CSSC[C@@H](C(=O)N[C@@H](CCCCN)C(=O)N[C@@H](Cc2ccc(O)cc2)C(=O)N[C@H](C(=O)N[C@@H](Cc2ccccc2)C(N)=O)C(C)C)NC(=O)[C@H](Cc2c[nH]c4ccccc24)NC(=O)[C@H](CCCCN)NC(=O)[C@H](Cc2cnc[nH]2)NC(=O)[C@H]([C@@H](C)O)NC(=O)[C@H](CCCNC(=N)N)NC(=O)[C@H](CO)NC3=O)NC(=O)[C@H](CCCCN)NC(=O)[C@H](CC(=O)O)NC(=O)[C@H](CC(N)=O)NC(=O)[C@H](CC(=O)O)NC(=O)[C@@H]2CCCN2C1=O [compound 102] (H-DCLGFMRKCIPDNDKCCRPNLECSRTHKWCKYVF-NH2; disulfide 2-17, 9-23, 16-30)
[1]; Use
  IC50: 2.14 µM
[2]; [3]
  IC50: 20.8 µM

## CC[C@H](C)[C@@H]1NC(=O)[C@@H]2CSSC[C@@H]3NC(=O)[C@H](C(C)C)NC(=O)[C@H](CC(C)C)NC(=O)[C@H](CC(N)=O)NC(=O)[C@@H]4CCCN4C(=O)[C@H](CCCNC(=N)N)NC(=O)[C@H](CSSC[C@H](NC(=O)[C@@H](N)CC(=O)O)C(=O)N[C@@H](CC(C)C)C(=O)N[C@@H](Cc4c[nH]c5ccccc45)C(=O)N[C@@H](Cc4ccccc4)C(=O)N[C@@H](CCSC)C(=O)N[C@@H](CCCNC(=N)N)C(=O)N[C@@H](CCCCN)C(=O)N2)NC(=O)[C@H](CSSC[C@@H](C(=O)N[C@@H](CCCCN)C(=O)N[C@@H](Cc2ccc(O)cc2)C(=O)N[C@H](C(=O)N[C@@H](Cc2ccccc2)C(N)=O)C(C)C)NC(=O)[C@H](Cc2c[nH]c4ccccc24)NC(=O)[C@H](CCCCN)NC(=O)[C@H](Cc2cnc[nH]2)NC(=O)[C@H]([C@@H](C)O)NC(=O)[C@H](CCCNC(=N)N)NC(=O)[C@H](CO)NC3=O)NC(=O)[C@H](CCCCN)NC(=O)[C@H](CC(=O)O)NC(=O)[C@H](CC(N)=O)NC(=O)[C@H](CC(=O)O)NC(=O)[C@@H]2CCCN2C1=O [SEQ ID NO: 169] (H-DCLWFMRKCIPDNDKCCRPNLVCSRTHKWCKYVF-NH2; disulfide 2-17, 9-23, 16-30)
[1]; [4]
  IC50: 0.03 µM
[2]; [5]
  IC50: 10.3 µM

## CC[C@H](C)[C@@H]1NC(=O)[C@@H]2CSSC[C@@H]3NC(=O)[C@H](C(C)C)NC(=O)[C@H](CC(C)C)NC(=O)[C@H](CC(N)=O)NC(=O)[C@@H]4CCCN4C(=O)[C@H](CCCNC(=N)N)NC(=O)[C@H](CSSC[C@H](NC(=O)[C@@H](N)CC(=O)O)C(=O)N[C@@H](CC(C)C)C(=O)NCC(=O)N[C@@H](Cc4ccccc4)C(=O)N[C@@H](CCSC)C(=O)N[C@@H](CCCNC(=N)N)C(=O)N[C@@H](CCCCN)C(=O)N2)NC(=O)[C@H](CSSC[C@@H](C(=O)N[C@@H](CCCCN)C(=O)N[C@@H](Cc2ccc(O)cc2)C(=O)N[C@@H](CCCNC(=N)N)C(=O)N[C@@H](Cc2ccccc2)C(N)=O)NC(=O)[C@H](Cc2c[nH]c4ccccc24)NC(=O)[C@H](CCCCN)NC(=O)[C@H](Cc2cnc[nH]2)NC(=O)[C@H]([C@@H](C)O)NC(=O)[C@H](CCCNC(=N)N)NC(=O)[C@H](CO)NC3=O)NC(=O)[C@H](CCCCN)NC(=O)[C@H](CC(=O)O)NC(=O)[C@H](CC(N)=O)NC(=O)[C@H](CC(=O)O)NC(=O)[C@@H]2CCCN2C1=O [compound 74] (H-DCLGFMRKCIPDNDKCCRPNLVCSRTHKWCKYRF-NH2; disulfide 2-17, 9-23, 16-30)
[1]; Table 26, use, […]
  IC50: 0.05 µM
[2]; Table 26, IonWorks Quattro, use, […], read-out: IWQ Use Nav1.5
  IC50: 9.55 µM

## CC[C@H](C)[C@@H]1NC(=O)[C@@H]2CSSC[C@@H]3NC(=O)[C@H](C(C)C)NC(=O)[C@H](CC(C)C)NC(=O)[C@H](CC(N)=O)NC(=O)[C@@H]4CCCN4C(=O)[C@H](CCCNC(=N)N)NC(=O)[C@H](CSSC[C@H](NC(=O)[C@@H](N)CC(=O)O)C(=O)N[C@@H](CC(C)C)C(=O)NCC(=O)N[C@@H](Cc4ccccc4)C(=O)N[C@@H](CCSC)C(=O)N[C@@H](CCCNC(=N)N)C(=O)N[C@@H](CCCCN)C(=O)N2)NC(=O)[C@H](CSSC[C@@H](C(=O)N[C@@H](CCCCN)C(=O)N[C@@H](Cc2ccc(O)cc2)C(=O)N[C@H](C(=O)N[C@@H](Cc2ccccc2)C(N)=O)C(C)C)NC(=O)[C@H](Cc2c[nH]c4ccccc24)NC(=O)[C@H](CCCCN)NC(=O)[C@H](Cc2cnc[nH]2)NC(=O)[C@H]([C@@H](C)O)NC(=O)[C@H](CCCNC(=N)N)NC(=O)[C@H](CO)NC3=O)NC(=O)[C@H](CCCCN)NC(=O)[C@H](CC(=O)O)NC(=O)[C@H](CC(N)=O)NC(=O)[C@H](CC(=O)O)NC(=O)[C@H](CCC(=O)O)NC1=O [SEQ ID NO: 147, [Glu11]GpTx-1] (H-DCLGFMRKCIEDNDKCCRPNLVCSRTHKWCKYVF-NH2; disulfide 2-17, 9-23, 16-30)
[1]; Use
  IC50: 0.21 µM
[2]; IWQ Use Nav1.5 (μM)
  IC50: 15.6 µM

## CC[C@H](C)[C@@H]1NC(=O)[C@@H]2CSSC[C@@H]3NC(=O)[C@H](C(C)C)NC(=O)[C@H](CC(C)C)NC(=O)[C@H](CC(N)=O)NC(=O)[C@@H]4CCCN4C(=O)[C@H](CCCNC(=N)N)NC(=O)[C@H](CSSC[C@H](NC(=O)[C@@H](N)CC(=O)O)C(=O)N[C@@H](CC(C)C)C(=O)NCC(=O)N[C@@H](Cc4ccccc4)C(=O)N[C@@H](CCSC)C(=O)N[C@@H](CCCNC(=N)N)C(=O)N[C@@H](CCC(=O)O)C(=O)N2)NC(=O)[C@H](CSSC[C@@H](C(=O)N[C@@H](CCCCN)C(=O)N[C@@H](Cc2ccc(O)cc2)C(=O)N[C@H](C(=O)N[C@@H](Cc2ccccc2)C(N)=O)C(C)C)NC(=O)[C@H](Cc2c[nH]c4ccccc24)NC(=O)[C@H](CCCCN)NC(=O)[C@H](Cc2cnc[nH]2)NC(=O)[C@H]([C@@H](C)O)NC(=O)[C@H](CCCNC(=N)N)NC(=O)[C@H](CO)NC3=O)NC(=O)[C@H](CCCCN)NC(=O)[C@H](CC(=O)O)NC(=O)[C@H](CC(N)=O)NC(=O)[C@H](CC(=O)O)NC(=O)[C@@H]2CCCN2C1=O [[Glu8]GpTx-1(1-34)] (H-DCLGFMRECIPDNDKCCRPNLVCSRTHKWCKYVF-NH2; disulfide 2-17, 9-23, 16-30)
[1]; use-dependent block, hNav1.3
  IC50: 1.36 µM
[2]; IWQ Use Nav1.5 (μM)
  IC50: 24.9 µM
